Assay results from PubChem BioAssay (NCI).
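Interpolation was linear, between the two tested concentrations surrounding the appropriate level; five concentrations were tested over 48 hours in 96-well plates. GI50: concentration for 50% inhibition of growth. Definition used: TGI = concentration required for complete inhibition of growth.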

Legend:
Experiment in all cases: NCI-60 cell line screen, 48 h
[1] = tested on: HS 578T breast
[2] = tested on: OVCAR-3 ovarian
[3] = tested on: NCI-H460 lung
[4] = tested on: A498 renal
[5] = tested on: HCT-15 colon
[6] = tested on: TK-10 renal
[7] = tested on: MOLT-4 leukemia
[8] = tested on: EKVX NSCLC
[9] = tested on: UACC-62 melanoma
[10] = tested on: SK-MEL-28 melanoma

Row | Structure (SMILES) | GI50 [1] | TGI [1] | GI50 [2] | TGI [2] | GI50 [3] | TGI [3] | GI50 [4] | TGI [4] | GI50 [5] | TGI [5] | GI50 [6] | TGI [6] | GI50 [7] | TGI [7] | GI50 [8] | TGI [8] | GI50 [9] | TGI [9] | GI50 [10] | TGI [10]
1 | C=C1C(=O)O[C@H]2[C@H]1CC/C(Cn1cc(-c3cc(C)c(C)cc3C)nn1)=C\CC[C@@]1(C)O[C@@H]21 | 1.94 µM | 6.2 µM | 1.03 µM | 2.19 µM | 3.16 µM | 10.8 µM | 1.04 µM | 4 µM | 0.201 µM | 0.548 µM | 1.46 µM | 2.83 µM | 2.38 µM | 7.34 µM | 1.22 µM | 2.53 µM | 1.13 µM | 2.56 µM | 1.4 µM | 2.89 µM
2 | COc1ccc2c(c1)/C(=C/c1cc(OC)c(OC)c(OC)c1)C(=O)N2C | 1.43 µM | 4.61 µM | 2.03 µM | 5.95 µM | 2.46 µM | 7.02 µM | 2.5 µM | 5.92 µM | 2.12 µM | > 35.6 µM | 3.56 µM | > 31.6 µM | 1.89 µM | 7.56 µM | 5.1 µM | > 100 µM | 2.37 µM | > 24 µM | 3.58 µM | 22.5 µM
3 | COc1ccc(-c2cc(=O)c3c(OC)c(OC)c(OC)c(OC)c3o2)c(OC)c1 |  | 49.4 µM |  | 53.7 µM |  | > 100 µM |  | 76.1 µM |  | 86.1 µM |  | > 100 µM |  | 86.1 µM |  | > 100 µM |  | 33 µM |  | > 100 µM
4 | COc1cc2c(cc1OCCCCOc1ccc(-c3nc4ccccc4s3)cc1)N=C[C@@H]1CCCN1C2=O | 0.891 µM | 4.43 µM | 0.477 µM | 3.47 µM | 1.56 µM | 4.06 µM | 1.99 µM | 4.34 µM | 1.08 µM | 3.89 µM | 1.21 µM | 5.17 µM | 0.924 µM | 3.86 µM | 2.56 µM | 6.39 µM | 1.14 µM | 2.69 µM | 2.18 µM | 4.95 µM
5 | C=C1C(=O)OC2CC(C)C3C=CC(=O)C3CC12 (stereo not drawn) |  | 6.53 µM |  | 13.6 µM |  | 9.5 µM |  | 24.3 µM |  | 4.16 µM |  | 8.07 µM |  | 4.68 µM |  | 26.3 µM |  | 3.74 µM |  | 4.16 µM
6 | CC1(C)CC2(C)CC1CC2NC(=O)CCN1CCOCC1 (stereo not drawn) |  | > 100 µM |  | > 100 µM |  | > 100 µM |  | > 100 µM |  |  |  | > 100 µM |  | > 100 µM |  | > 100 µM |  | > 100 µM |  | > 100 µM
7 | C=CC1=C(C)C2=NC1=CC1=NC(=CC3=C(C)C4=C(O)C(C(=O)OC)C(=C5NC(=C2)C(C)C5CCC(=O)OC)C4=N3)C(CC)=C1C (stereo not drawn) |  | > 100 µM |  | > 100 µM |  | > 100 µM |  | > 100 µM |  | > 100 µM |  | > 100 µM |  |  |  | > 100 µM |  | > 100 µM |  | > 100 µM
8 | N#Cc1ccc2c(c1)C(=O)c1c-2n(CCCN)c(=O)c2cc([N+](=O)[O-])ccc12 | 1.41 µM | 3.41 µM |  |  | 0.0462 µM | 1.14 µM | 1.09 µM | 2.44 µM | 0.411 µM | 1.83 µM | 1.74 µM | 3.72 µM | 0.0492 µM |  | 0.537 µM | 1.93 µM | 0.109 µM | 1.39 µM | 0.975 µM | 2.59 µM
9 | NS(=O)(=O)c1ccc(NC(=O)c2cccc3cc4ccccc4nc23)cc1 |  | > 100 µM |  | > 100 µM |  | > 100 µM |  | > 100 µM |  | > 100 µM |  | > 91.2 µM |  | 68.4 µM |  | > 100 µM |  | > 100 µM |  | > 100 µM
10 | O=C1CS/C(=N\S(=O)(=O)c2ccc(N3N=C4c5ccccc5CC4C3c3ccc(Cl)cc3)cc2)N1c1ccccc1 (stereo not drawn) | 29.4 µM | 87.4 µM | 48.5 µM | > 100 µM | 19.7 µM | 48.9 µM | 25.6 µM | 53 µM | 34.8 µM | > 100 µM | 29.7 µM | > 100 µM | 17.2 µM | 40.7 µM | 43.2 µM | > 100 µM | 30.1 µM | 77.3 µM |  | 
11 | COc1ccc(OC)c2c(=S)c3ccccc3[nH]c12 |  | > 100 µM |  | > 100 µM |  | > 85 µM |  | > 100 µM |  | > 92.5 µM |  | 100 µM |  | 98.4 µM |  | > 100 µM |  | > 100 µM |  | > 100 µM
12 | NC(CC1=CCC=CC1)C(=O)O (stereo not drawn) |  | > 100 µM |  | > 100 µM |  | > 100 µM |  | > 100 µM |  | > 100 µM |  | > 100 µM |  | > 100 µM |  | > 100 µM |  | > 100 µM |  | > 100 µM
13 | Cc1c(N=Cc2ccc(N(CCC#N)CCC#N)cc2)c(=O)n(-c2ccccc2)n1C |  | > 100 µM |  | > 100 µM |  | > 100 µM |  | > 100 µM |  | > 100 µM |  | 62.1 µM |  | > 100 µM |  | > 100 µM |  | > 100 µM |  | > 100 µM
14 | CC(C)c1ccc(NC(=S)NC(=O)c2ccccc2)cc1 |  | > 100 µM |  | 38.3 µM |  | 40.2 µM |  | 74.1 µM |  | 40.7 µM |  | 50.1 µM |  | 52.3 µM |  | > 100 µM |  | 30.7 µM |  | 48.3 µM
15 | COc1ccc(N(/C=C/C(=O)C(F)(F)F)CC(=O)c2ccc(Cl)c(Cl)c2)cc1 | 4.81 µM | 14.6 µM | 15.6 µM | 29.3 µM | 6.73 µM | 27.3 µM | 10.1 µM | 22.2 µM | 7.66 µM | 21.4 µM | 13.7 µM | 27.1 µM | 3.9 µM | > 100 µM | 13.2 µM | 27.6 µM | 8.75 µM | 22.8 µM | 28.1 µM | 79.4 µM
16 | CC(=O)OC1Oc2ccccc2-c2oc(=O)c(-c3cc4ccccc4oc3=O)cc21 (stereo not drawn) | 30 µM | 89.2 µM | 19.1 µM | 46.6 µM | 27.8 µM | 91 µM | 18.8 µM | 43.9 µM | 22.3 µM | > 100 µM | 18.3 µM | 37.2 µM | 25.4 µM | 81.8 µM | 26.4 µM | 74.6 µM | 17.4 µM | 35.1 µM | 32.7 µM | 87.3 µM
